Counter-ions that a name gives are not always drawn. Like-named read-outs stand apart in the source and are kept apart here.
Tests used:
[1] = tested on: ventral prostate of mature male rat; test: Prostate gland reducing action toward mature male rat; format: in vivo; settings: 360 h; oral, once a day for 15 days, male Wistar rat, ventral prostate wet weight, linear regression
Procedure: 3. Prostate Gland Reducing Action Toward Mature Male Rat
To a male 9-10 weeks old Wistar rat, the compound of the present invention suspended in a 0.5% methylcellulose solution was orally administered once a day continuously for 15 days. After 6 hours from the final administration, the wet weight of its ventral prostate was measured and a prostate gland reducing of the compound of the present invention was investigated.
The prostate gland reducing of the compound of the present invention was calculated according to the following formula using a group to which the compound of the present invention was administered as a test group and a group to which only methylcellulose was administered as a control group. Lessening ratio (%)=100(B−A)/B
A: Wet weight of ventral prostate in test group
B: Wet weight of ventral prostate in control group
From the lessening ratio determined in the above, an ED50 value was calculated by the linear regression method.

human androgen receptor [2] = target: T1, human androgen receptor (Homo sapiens, UniProt P10275); test: Transcription activation inhibitory action toward human androgen receptor (antagonistic action), MMTV luciferase reporter in CHO cells; format: cell-based
T1 construct: expressed in transfected cells
T1 sequence (P10275 1-920): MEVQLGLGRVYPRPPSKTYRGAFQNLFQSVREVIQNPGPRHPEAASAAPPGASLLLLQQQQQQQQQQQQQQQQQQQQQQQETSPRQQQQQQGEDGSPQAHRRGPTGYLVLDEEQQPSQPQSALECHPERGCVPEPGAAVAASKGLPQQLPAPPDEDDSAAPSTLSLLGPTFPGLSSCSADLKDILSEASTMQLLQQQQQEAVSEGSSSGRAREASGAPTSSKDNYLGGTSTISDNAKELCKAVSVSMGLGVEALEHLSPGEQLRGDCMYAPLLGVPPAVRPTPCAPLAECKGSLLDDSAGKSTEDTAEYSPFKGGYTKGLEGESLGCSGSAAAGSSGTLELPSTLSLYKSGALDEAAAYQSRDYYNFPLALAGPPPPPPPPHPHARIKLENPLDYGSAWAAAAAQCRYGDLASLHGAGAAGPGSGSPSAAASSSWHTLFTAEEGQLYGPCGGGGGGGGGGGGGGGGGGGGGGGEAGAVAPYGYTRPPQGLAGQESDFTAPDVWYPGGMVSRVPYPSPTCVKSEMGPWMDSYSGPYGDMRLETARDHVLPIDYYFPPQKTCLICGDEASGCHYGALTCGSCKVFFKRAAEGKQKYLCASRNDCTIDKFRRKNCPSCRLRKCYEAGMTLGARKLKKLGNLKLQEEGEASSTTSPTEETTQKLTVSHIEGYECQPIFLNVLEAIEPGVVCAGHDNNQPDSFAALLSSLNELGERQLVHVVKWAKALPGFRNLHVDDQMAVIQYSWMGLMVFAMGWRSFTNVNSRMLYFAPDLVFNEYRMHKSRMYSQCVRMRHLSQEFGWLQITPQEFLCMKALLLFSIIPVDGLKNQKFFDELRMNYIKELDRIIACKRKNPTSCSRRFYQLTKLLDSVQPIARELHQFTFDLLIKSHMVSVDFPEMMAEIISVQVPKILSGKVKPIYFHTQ
Procedure: b) Evaluation of Transcription Activation Inhibitory Action Toward Human Androgen Receptor (Antagonistic Action)
CHO/MMTV stable transformant cells and CHO/SV40 stable transformant cells were each inoculated to a 96-well luminoplate for cell culture in an amount of 2×10^4 cells. After 6 to 8 hours, each of the compounds of the present invention was added together with DHT (final concentration of 0.3 nM). After about 18 hours from the addition of the compound, 20 μl of a solution containing 1% triton-X and 10% glycerin was added thereto to dissolve the cells and 100 μl of a luciferase substrate solution containing 0.47 mM luciferin was further added thereto. Then, emitted light intensity was measured using a luminometer, the intensity being regarded as luciferase activity obtained by MMTV-LTR transcription activation due to androgen receptor and nonspecific activation of SV40 promoter transcription.
The transcription activation inhibitory action of the compound of the present invention was calculated according to the following equation as an inhibitory ratio to the transcription activity induced by 0.3 nM DHT. Inhibitory ratio (%)=100(I′−X′)/(I′−B)
I′: (MMTV luciferase activity)/(SV40 luciferase activity) in the case that 0.3 nM DHT is only added
B: (MMTV luciferase activity)/(SV40 luciferase activity) without treatment
X′: (MMTV luciferase activity)/(SV40 luciferase activity) in the case that the compound of the present invention is added together with 0.3 nM DHT
IC50 was determined from the concentration of the compound of the present invention at which the inhibitory ratio calculated by the above method reached 50%.

human androgen receptor [3] = target: T1, human androgen receptor; test: Transcription activating action toward human androgen receptor (agonistic action), MMTV luciferase reporter in CHO cells; format: cell-based; settings: ratio to transcription activity induced by 1 nM DHT; CHO/MMTV and CHO/SV40 stable transformants
Procedure: 1. Transcription Activation Regulatory Action Toward Human Androgen Receptor
Acquisition of Human Androgen Receptor-Expressing, Stable Transformant of MMTV Reporter Gene, and Stable Transformant of SV40 Reporter Gene
CHO cells were seeded on a dish for cell culture having a diameter of 100 mm in an amount of 1×10^6 cells. After 12 to 18 hours, a human androgen receptor-expressing plasmid, MMTV-LTR luciferase reporter plasmid (also inclusive of neomycin resistant gene) co-precipitated with calcium phosphate was added thereto to effect transfection. […]
CHO/MMTV stable transformant cells and CHO/SV40 stable transformant cells were each seeded to a 96-well luminoplate for cell culture in an amount of 2×10^4 cells/well. […] Then, emitted light intensity was measured by means of a luminometer, the intensity being regarded as luciferase activity obtained by MMTV-LTR transcription activation due to human androgen receptor and nonspecific activation of SV40 promoter transcription.
The transcription activating action of the compound of the present invention was calculated according to the following equation as a ratio to the transcription activity induced by 1 nM DHT. […]

Compound | ED50 [1] | IC50 (human androgen receptor [2]) | further results
COc1cc(N2C[C@@H](C)N(C(=O)Nc3ccc(C(F)(F)F)nc3)C[C@@H]2C)ccc1C#N (as salt: salt) [Example 3-15, (2R,5S)-4-(4-cyano-3-methoxyphenyl)-2,5-dimethyl-N-(6-trifluoromethyl-3-pyridyl)piperazine-1-carboxamide] |  |  | melting point: 211 to 212 °C
C[C@@H]1CN(c2ccc(C#N)c(Br)c2)[C@@H](C)CN1C(=O)Nc1ccc(C(F)(F)F)nc1 (as salt: salt) [Example 3-23, (2R,5S)-4-(3-bromo-4-cyanophenyl)-2,5-dimethyl-N-(6-trifluoromethyl-3-pyridyl)piperazine-1-carboxamide] |  |  | melting point: 216 to 218 °C
C[C@@H]1CN(c2ccc(C#N)c(Cl)c2)[C@@H](C)CN1C(=O)Nc1cnc(C2CC2)nc1 [Example 3-9, (2R,5S)-4-(3-chloro-4-cyanophenyl)-N-(2-cyclopropylpyrimidin-5-yl)-2,5-dimethylpiperazine-1-carboxamide] | 4.5 mg/kg |  | 
C[C@@H]1CN(c2ccc(C#N)c(Cl)c2)[C@@H](C)CN1C(=O)Nc1ccc(C#N)nc1 [Example 3-12, (2R,5S)-4-(3-chloro-4-cyanophenyl)-N-(6-cyano-3-pyridyl)-2,5-dimethylpiperazine-1-carboxamide] | 1.7 mg/kg | 40 nM | agonistic induction ratio (human androgen receptor [3]): ≤ 1%
COc1cc(N2C[C@@H](C)N(C(=O)Nc3ccc(C(F)(F)F)nc3)C[C@@H]2C)ccc1C#N [Example 3-15, (2R,5S)-4-(4-cyano-3-methoxyphenyl)-2,5-dimethyl-N-(6-trifluoromethyl-3-pyridyl)piperazine-1-carboxamide] | 4.1 mg/kg |  | IC50 (human androgen receptor [2]; against 0.3 nM DHT, CHO/MMTV and CHO/SV40 stable transformants, read-out: Transcription activation inhibitory action (IC50 nM)): 130 nM
C[C@@H]1CN(c2ccc(C#N)c(Br)c2)[C@@H](C)CN1C(=O)Nc1ccc(C(F)(F)F)nc1 [Example 3-23, (2R,5S)-4-(3-bromo-4-cyanophenyl)-2,5-dimethyl-N-(6-trifluoromethyl-3-pyridyl)piperazine-1-carboxamide] | 1.1 mg/kg | 53 nM | 
C[C@@H]1CN(c2ccc(C#N)c(C(F)(F)F)c2)[C@@H](C)CN1C(=O)Nc1cnc(C2CC2)nc1 [Example 3-30, (2R,5S)-4-(4-cyano-3-trifluoromethylphenyl)-N-(2-cyclopropylpyrimidin-5-yl)-2,5-dimethylpiperazine-1-carboxamide] | 3.9 mg/kg | 68 nM | 

— US7666873B2, “N-phenyl-(2R,5S)dimethylpiperazine derivative” (Astellas Pharma Inc., priority 2002, dated 2010)
